Common to all, as to format: cell-based
Experiment [1] relates to RNASEH2B+/+ and RNASEH2B−/− cells. As to the kind of experiment: Synergy between ATR inhibitor and PARP inhibitor in RNASEH2B+/+ and RNASEH2B−/− cells. The settings on record: combination of ATR inhibitor and PARP inhibitor. The text has this:
An ATR inhibitor (e.g., compound 121) may synergize with a PARP inhibitor (e.g., 5-[4-[(7-ethyl-6-oxo-5H-1,5-naphthyridin-3-yl)methyl]piperazin-1-yl]-N-methyl-pyridine-2-carboxamide) in RNASEH2B+/+ and RNASEH2B−/− cells. Importantly, in RNASEH2B−/− cells, synergy (e.g., maximum synergy) may be achieved at lower concentrations of an ATR inhibitor (e.g., compound 121) and lower concentrations of the PARP inhibitor (e.g., 5-[4-[(7-ethyl-6-oxo-5H-1,5-naphthyridin-3-yl)methyl]piperazin-1-yl]-N-methyl-pyridine-2-carboxamide) than in RNASEH2B+/+ cells. As a result, the apparent IC50 of the PARP inhibitor may shift in the presence of the ATR inhibitor (e.g., compound 121).
In addition to selecting a sensitized genetic background, tolerability of the combination treatment with an ATR inhibitor and PARP inhibitor can be improved by optimizing dosing schedules (Fang et al., Cancer Cell, 35:851-867, 2019). To guide the combined dosing of the ATR inhibitor (e.g., compound 121) and the PARP inhibitor (e.g., 5-[4-[(7-ethyl-6-oxo-5H-1,5-naphthyridin-3-yl)methyl]piperazin-1-yl]-N-methyl-pyridine-2-carboxamide) in RNASEH2B-deficient tumor cells, a continuous longer (e.g., 168 h) concomitant treatment of RNASEH2B+/+ and −/− cells with both compounds may be compared to a shorter (e.g., either a 48 or 72 h) treatment followed by removal of compounds and growth in drug-free media. […]

The subject of experiment [2] is isogenic cell lines lacking CDK12 or BRCA2. As to the kind of experiment: 48-hr combination treatment of isogenic cell lines lacking CDK12 or BRCA2. The settings on record: 48-hr treatment with combination. The text has this: The optimized dosing schedule may be applicable to cells carrying mutations not only in RNASEH2B, but additional genes.
Experiment [3] concerns tumor cells that employ the Alternative Lengthening of Telomeres (ALT) mechanism. The experiment can be described thus: Combination against ALT tumor cells. The note with it: combination of ATR inhibitor with PARP inhibitor. The text has this: In addition to tumors carrying the above-mentioned genetic alterations, the combination of ATR inhibitors (e.g., Compound 121) with PARP inhibitors (e.g., 5-[4-[(7-ethyl-6-oxo-5H-1,5-naphthyridin-3-yl)methyl]piperazin-1-yl]-N-methyl-pyridine-2-carboxamide) may be effective against tumor cells that employ the Alternative Lengthening of Telomeres (ALT) mechanism.

As for `CCc1cc2ncc(CN3CCN(c4ccc(C(=O)NC)nc4)CC3)cc2[nH]c1=O` [5-[4-[(7-ethyl-6-oxo-5H-1,5-naphthyridin-3-yl)methyl]piperazin-1-yl]-N-methyl-pyridine-2-carboxamide], the “synergy of ATR inhibitor with PARP inhibitor” value in experiment [1] is “synergize”. Further, the synergistic sensitization entry in experiment [2] was “synergistically sensitize”. Moreover, the “effectiveness of combination against ALT tumor cells” value in experiment [3] is reported as “effective”.
On to `C[C@@H]1COCCN1c1cc([C@@]2(O)C[C@H]3CC[C@@H](C2)O3)c2cnn(-c3cc[nH]n3)c2n1` [compound 121], for which the “synergy of ATR inhibitor with PARP inhibitor” value in experiment [1] is listed as “synergize”. Besides, the synergistic sensitization entry in experiment [2] was “synergistically sensitize”. In experiment [3], the “effectiveness of combination against ALT tumor cells” value was “effective”.

(Values after patent publication US20240173330A1, “USE OF ATR INHIBITORS IN COMBINATION WITH PARP INHIBITORS FOR TREATING CANCER” (Repare Therapeutics Inc., priority 2021, published 2024).)
